Assay results reported in patent publication US4517187A, “1,3,4,6,7-11b-Hexahydro-7-phenyl-2H-pyrazino[2,1-a]isoquinolines methods of preparation, and use as antidepressants” (Pennwalt Corporation, priority 1982, dated 1985).
Counter-ions that a name gives are not always drawn.

Experiments:
[1] = target: T1, histamine-stimulated adenylate cyclase (Cavia porcellus, UniProt P47747); test: in vitro inhibition of histamine-stimulated adenylate cyclase (ad. cyc H); type: biochemical; conditions: smaller numbers indicate greater potency, read-out: ad cyc H rating (molar concentration required to inhibit by 50% the stimulation of adenylate cyclase observed after treatment with histamine)
T1 construct: by the method developed by Kanof and Greengard; from tissue; host or cells: brain homogenate (guinea pig hippocampus/neocortex, inferred from the cited method)

[2] = target: T2, specific binding of tritiated mepyramine ([^3 H]-mepyramine) in brain (Rattus norvegicus, UniProt P31390); test: in vitro inhibition of the specific binding of [3H]-mepyramine in brain; conditions: brain homogenates, read-out: (^3 H)mepyramine rating (molar concentration required to inhibit by 50% the binding of [^3 H]mepyramine)
T2 construct: rate brain homogenates; from tissue; host or cells: rat brain homogenate

[3] = target: binding of tritiated quinuclidinyl benzylate ([^3 H]-QNB) in brain; set-up: species or system rat; conditions: in vitro; brain homogenates; read-out: (^3 H)QNB rating (molar concentration required to inhibit by 50% the binding of [^3 H]QNB)

T1 sequence (P47747 whole entry): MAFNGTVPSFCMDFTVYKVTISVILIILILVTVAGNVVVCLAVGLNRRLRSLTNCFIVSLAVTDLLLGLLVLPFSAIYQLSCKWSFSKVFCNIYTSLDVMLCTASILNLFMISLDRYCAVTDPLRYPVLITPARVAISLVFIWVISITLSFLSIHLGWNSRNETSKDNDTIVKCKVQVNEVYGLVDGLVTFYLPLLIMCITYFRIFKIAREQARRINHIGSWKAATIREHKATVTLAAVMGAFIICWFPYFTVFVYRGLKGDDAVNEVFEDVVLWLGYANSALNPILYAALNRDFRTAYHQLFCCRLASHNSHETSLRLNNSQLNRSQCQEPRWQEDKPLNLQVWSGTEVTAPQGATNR
T2 sequence (P31390 whole entry): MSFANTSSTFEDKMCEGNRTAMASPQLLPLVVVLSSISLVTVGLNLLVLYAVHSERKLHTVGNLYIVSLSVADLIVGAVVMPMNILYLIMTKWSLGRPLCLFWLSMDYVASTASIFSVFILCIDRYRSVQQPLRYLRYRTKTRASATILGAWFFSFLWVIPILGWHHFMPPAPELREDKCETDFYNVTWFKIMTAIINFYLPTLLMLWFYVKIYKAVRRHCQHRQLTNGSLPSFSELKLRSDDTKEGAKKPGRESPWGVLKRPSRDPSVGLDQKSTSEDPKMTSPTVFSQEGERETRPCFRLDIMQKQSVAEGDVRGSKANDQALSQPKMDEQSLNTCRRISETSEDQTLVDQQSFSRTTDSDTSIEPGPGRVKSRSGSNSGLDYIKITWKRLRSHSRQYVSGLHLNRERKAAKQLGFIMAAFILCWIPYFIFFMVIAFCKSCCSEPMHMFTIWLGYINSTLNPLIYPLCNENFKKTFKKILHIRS

SMILES | IC50 [1] [µM] | IC50 [2] [nM] | IC50 [3] [nM]
c1ccc([C@@H]2CN3CCNC[C@H]3c3ccccc32)cc1 (relative stereo) [Example 4, cis-1,3,4,6,7,11b-Hexahydro-7-phenyl-2H-pyrazino[2,1-a]isoquinoline dihydrochloride] | > 10 | > 1000 | 920
CCN1CCN2C[C@@H](c3ccccc3)c3ccccc3[C@@H]2C1 (relative stereo) [Example 3, cis-1,3,4,6,7,11b-Hexahydro-2-ethyl-7-phenyl-2H-pyrazino[2,1-a]isoquinoline dihydrochloride] | > 10 | 340 | 1100
CN1CCN2C[C@@H](c3ccccc3)c3ccccc3[C@H]2C1 (relative stereo) [Example 2, trans-1,3,4,6,7,11b-Hexahydro-2-methyl-7-phenyl-2H-pyrazino[2,1-a]isoquinoline dihydrochloride] | > 10 | > 1000 | 3300
CN1CCN2C[C@@H](c3ccccc3)c3ccccc3[C@@H]2C1 (relative stereo) [Example 1, cis-1,3,4,6,7,11b-Hexahydro-2-methyl-7-phenyl-2H-pyrazino[2,1-a]isoquinoline dihydrochloride] | 6.8 | 20 | 250
